Some test systems named below: NCI-H23 lung; PC-3 prostate; SK-MEL-2 melanoma; MOLT-4 leukemia; CCRF-CEM leukemia; 786-0 renal; TK-10 renal; UACC-62 melanoma; HS 578T breast; BT-549 breast.
Holding throughout (experiment): NCI-60 cell line screen, 48 h

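All cell lines were grown in 96-well plates and treated with compound for 48 hours. TGI marks complete inhibition of growth.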

In the case of `C=CC[n+]1c2ccccc2n2cc([N+](=O)[O-])ccc21`, the TGI with NCI-H23 lung was 43 µM; with PC-3 prostate, greater than 100 µM; in the assay on SK-MEL-2 melanoma, 95.8 µM; in the assay with MOLT-4 leukemia, 67.5 µM; in the assay on CCRF-CEM leukemia, 55.3 µM; in the assay with 786-0 renal it was greater than 100 µM. Moreover, the TGI is greater than 100 µM with TK-10 renal and 74.9 µM with UACC-62 melanoma.

As for `CCc1cc2c(c3c1CCCC3=O)CC1(Cc3ccc(C(=O)OC)cc3C1)C2` (configuration not stated), the TGI in the assay on NCI-H23 lung was greater than 100 µM; in the assay on PC-3 prostate it was greater than 100 µM; in the assay on SK-MEL-2 melanoma it was greater than 100 µM; with HS 578T breast it was greater than 100 µM; with MOLT-4 leukemia it was greater than 100 µM; in the assay with CCRF-CEM leukemia it was 91.4 µM. For the same compound, the TGI in the assay on 786-0 renal and with TK-10 renal was greater than 100 µM each time.

On to `Cc1ccccc1N=C(N)Nc1ccccc1C`, for which the TGI with NCI-H23 lung, in the assay on PC-3 prostate, in the assay on SK-MEL-2 melanoma, in the assay on HS 578T breast, in the assay with MOLT-4 leukemia and in the assay on CCRF-CEM leukemia was greater than 100 µM in each case. Further, the TGI with 786-0 renal, in the assay with TK-10 renal and in the assay on UACC-62 melanoma was greater than 100 µM each time.

`Nc1nc(Cl)cc(NC23CC4CC(CC(C4)C2)C3)n1`: the TGI is greater than 100 µM in the assay with NCI-H23 lung; greater than 100 µM in the assay with PC-3 prostate; 71.4 µM with SK-MEL-2 melanoma; greater than 100 µM in the assay with MOLT-4 leukemia; greater than 100 µM with CCRF-CEM leukemia; greater than 100 µM with 786-0 renal. For the same compound, the TGI in the assay on BT-549 breast and in the assay with UACC-62 melanoma was greater than 100 µM throughout.

For `COc1ccc(/C(Cl)=C/c2cc(OC)ccc2OC)cc1`, the TGI in the assay on NCI-H23 lung, with MOLT-4 leukemia, with CCRF-CEM leukemia, with 786-0 renal and in the assay on UACC-62 melanoma was greater than 100 µM in each case.

For the compound `COC(=O)C1C(=O)N(C)C(=O)N2CCCC12` (configuration not stated), the TGI in the assay on NCI-H23 lung, in the assay with PC-3 prostate, with SK-MEL-2 melanoma, in the assay with HS 578T breast, with MOLT-4 leukemia and in the assay on CCRF-CEM leukemia was greater than 100 µM in each case. For the same compound, the TGI with 786-0 renal, with TK-10 renal and in the assay on UACC-62 melanoma was greater than 100 µM in each case.

Turning to `O=c1oc(C(C(F)(F)F)C(F)(F)F)nc2ccccc12`, the TGI in the assay with NCI-H23 lung, in the assay with PC-3 prostate, with SK-MEL-2 melanoma, in the assay with MOLT-4 leukemia, with CCRF-CEM leukemia and in the assay on 786-0 renal was greater than 100 µM throughout. The compound also displayed a TGI in the assay on TK-10 renal greater than 100 µM.

As for `COc1cc(C2C(Cl)C(=O)N2c2c(C)n(C)n(-c3ccccc3)c2=O)ccc1O` (configuration not stated), the TGI in the assay on NCI-H23 lung was 34.2 µM; in the assay with PC-3 prostate, greater than 100 µM; in the assay on SK-MEL-2 melanoma, 50.4 µM; with MOLT-4 leukemia, 67 µM; with CCRF-CEM leukemia, 79.7 µM; in the assay with 786-0 renal, 31.6 µM. Also, the TGI in the assay with BT-549 breast came to 45 µM; with TK-10 renal it was 63.5 µM; with UACC-62 melanoma it was 29.7 µM.

In the case of `CC1=NN(C(=O)c2ccc(Cl)cc2)C(=O)/C1=C/c1ccccc1O`, the TGI with NCI-H23 lung, in the assay on SK-MEL-2 melanoma, in the assay on MOLT-4 leukemia, in the assay on CCRF-CEM leukemia, in the assay with 786-0 renal and in the assay with TK-10 renal was greater than 100 µM throughout. This compound also showed a TGI in the assay with UACC-62 melanoma greater than 100 µM.

Turning to `NNC(=O)C1(NC(=O)c2ccccc2)C(c2ccccc2)C(c2ccccc2)=NN1c1ccccc1` (configuration not stated), the TGI is greater than 100 µM in the assay on NCI-H23 lung; greater than 100 µM with PC-3 prostate; greater than 100 µM with SK-MEL-2 melanoma; 40.7 µM in the assay on MOLT-4 leukemia; 98.4 µM with CCRF-CEM leukemia; greater than 100 µM with 786-0 renal. For the same compound, the TGI with BT-549 breast was greater than 100 µM; with TK-10 renal, greater than 100 µM; with UACC-62 melanoma, 56.9 µM.

As to `COc1ccc(OC)c(SC(CC(=O)c2ccccc2)c2ccccc2)c1` (configuration not stated), the TGI in the assay on NCI-H23 lung was 33.3 µM; in the assay with PC-3 prostate, 33.9 µM; in the assay on SK-MEL-2 melanoma it was 36.1 µM; in the assay on HS 578T breast it was 68.3 µM; with MOLT-4 leukemia, greater than 100 µM; in the assay on CCRF-CEM leukemia, greater than 100 µM. Further, the TGI with 786-0 renal was determined as 29.2 µM; in the assay on TK-10 renal it was 32.7 µM; in the assay with UACC-62 melanoma it was 30.7 µM.

As to `CN=C(/N=c1\ssc(=NC)n1C)N(C)C`, the TGI with NCI-H23 lung, in the assay with MOLT-4 leukemia, in the assay on 786-0 renal, in the assay with TK-10 renal and in the assay with UACC-62 melanoma was greater than 100 µM in each case.

As to `COc1ccc(Nc2ccc3ccccc3c2-c2c(O)ccc3ccccc23)cc1`, the TGI in the assay on NCI-H23 lung came out at 32.4 µM; in the assay on PC-3 prostate it was 29.3 µM; in the assay with SK-MEL-2 melanoma, 28.3 µM; in the assay on MOLT-4 leukemia it was 34.3 µM; in the assay on CCRF-CEM leukemia it was 46.8 µM; in the assay on 786-0 renal it was 32.2 µM. Further, the results for the TGI with BT-549 breast, in the assay with TK-10 renal and in the assay with UACC-62 melanoma were 52 µM, 75.3 µM and greater than 100 µM, respectively.

As for `Cn1c(=O)oc2nc(-c3ccccc3)cc(C(F)(F)F)c21`, the TGI with NCI-H23 lung, in the assay with PC-3 prostate, in the assay on SK-MEL-2 melanoma, in the assay on MOLT-4 leukemia, with 786-0 renal and in the assay on BT-549 breast was greater than 100 µM each time. Further, the TGI in the assay on TK-10 renal and in the assay with UACC-62 melanoma was greater than 100 µM each time.

Consider `c1ccc(CN2CCC(Nc3ccccc3)(c3nnnn3Cc3ccccc3)CC2)cc1`, for which the TGI is greater than 100 µM in the assay on NCI-H23 lung; greater than 100 µM in the assay on HS 578T breast; greater than 100 µM in the assay with MOLT-4 leukemia; 88.3 µM in the assay with CCRF-CEM leukemia; 60.6 µM with 786-0 renal; greater than 100 µM with TK-10 renal. Moreover, the TGI in the assay on UACC-62 melanoma is greater than 100 µM.

For `COc1cccc(C=O)c1[O-].[O]=[U](=[O])([OH2+])[OH2+]`, the TGI was greater than 100 µM in the assay on NCI-H23 lung; greater than 100 µM with SK-MEL-2 melanoma; 73.2 µM in the assay with MOLT-4 leukemia; greater than 100 µM in the assay on CCRF-CEM leukemia; 71.9 µM in the assay on 786-0 renal; 97.4 µM in the assay on TK-10 renal. In the assay with UACC-62 melanoma, this compound gave a TGI of 57.6 µM.

Turning to `Cn1c(-c2ccc(/C=N/NC(=S)N/N=C/c3ccc(-c4c[n+]5ccsc5n4C)cc3)cc2)c[n+]2ccsc12`, the TGI in the assay with PC-3 prostate, with HS 578T breast, in the assay on MOLT-4 leukemia, with CCRF-CEM leukemia, in the assay on 786-0 renal and with TK-10 renal was greater than 100 µM each time.

Regarding `NCc1cccc(O)c1O`, the TGI in the assay on SK-MEL-2 melanoma, in the assay with MOLT-4 leukemia, in the assay on CCRF-CEM leukemia, in the assay with 786-0 renal, with TK-10 renal and in the assay with UACC-62 melanoma was greater than 100 µM throughout.

Turning to `CC(C)/C(Cl)=N\OC(NC(=O)P(=O)(c1ccccc1)c1ccccc1)(C(F)(F)F)C(F)(F)F`, the TGI in the assay on NCI-H23 lung was 23.8 µM; in the assay with PC-3 prostate, 34.4 µM; in the assay on HS 578T breast, greater than 100 µM; in the assay with MOLT-4 leukemia it was 39.6 µM; with CCRF-CEM leukemia, 22.5 µM; in the assay on 786-0 renal, 22.8 µM. Besides, the TGI is 25.2 µM in the assay with TK-10 renal and 49 µM with UACC-62 melanoma.

Take `O=c1[nH]n(Cc2ccccc2)c2ccc([N+](=O)[O-])cc12`: the TGI in the assay with NCI-H23 lung, with PC-3 prostate, in the assay with SK-MEL-2 melanoma, in the assay with HS 578T breast, in the assay on MOLT-4 leukemia and with CCRF-CEM leukemia was greater than 100 µM throughout. For the same compound, the TGI in the assay on 786-0 renal, with TK-10 renal and in the assay with UACC-62 melanoma was greater than 100 µM each time.

Turning to `C=CCC1C(O[Si](C)(C)C(C)(C)C)C(CO[Si](C)(C)C(C)(C)C)OC1n1ccc(=O)[nH]c1=O` (configuration not stated), the TGI in the assay with NCI-H23 lung came out at 2.8 µM; with PC-3 prostate, 3.72 µM; with SK-MEL-2 melanoma, 4.65 µM; in the assay with MOLT-4 leukemia it was 2.84 µM; in the assay with CCRF-CEM leukemia it was 2.86 µM; in the assay on 786-0 renal it was 2.44 µM. The TGI amounted to 3.42 µM in the assay on BT-549 breast and 3.46 µM in the assay with UACC-62 melanoma.

In the case of `Cc1cc(OC(=O)NCn2cc(-c3ccccc3)nn2)ccc1Cl`, the TGI in the assay on NCI-H23 lung, with PC-3 prostate, with SK-MEL-2 melanoma, in the assay on MOLT-4 leukemia, with CCRF-CEM leukemia and in the assay with 786-0 renal was greater than 100 µM each time. Moreover, the TGI with BT-549 breast and with TK-10 renal was greater than 100 µM in each case.

For `CC(C)=CCNc1nc(Cl)nc2nc[nH]c12`, the TGI in the assay on NCI-H23 lung, in the assay with PC-3 prostate, in the assay on HS 578T breast, in the assay with MOLT-4 leukemia, with CCRF-CEM leukemia and in the assay on 786-0 renal was greater than 100 µM each time. Besides, the TGI with TK-10 renal and with UACC-62 melanoma was greater than 100 µM each time.

On to `COc1cc(C2C3=C(COC3=O)Oc3cc4c(cc32)OCO4)cc(OC)c1O` (configuration not stated), for which the TGI is 1.81 µM with NCI-H23 lung; 4.67 µM in the assay with PC-3 prostate; 2.51 µM with SK-MEL-2 melanoma; 26 µM in the assay on MOLT-4 leukemia; greater than 66.9 µM in the assay on CCRF-CEM leukemia; 15.5 µM in the assay with 786-0 renal. Further, the values for the TGI in the assay on BT-549 breast, in the assay with TK-10 renal and in the assay on UACC-62 melanoma were greater than 100 µM, 63.8 µM and 2.69 µM, respectively.

As for `O=C1C=CC(=O)c2c(O)c(NCCOCCO)c(Cl)c(O)c21`, the TGI with NCI-H23 lung worked out at 3.51 µM; in the assay on SK-MEL-2 melanoma, 21.7 µM; in the assay on MOLT-4 leukemia it was 27.4 µM; in the assay on 786-0 renal, 17.2 µM; with TK-10 renal it was 26.6 µM; in the assay on UACC-62 melanoma it was 11.7 µM.

The values above are taken from PubChem BioAssay (NCI).
